Assay results: ChEMBL document CHEMBL3120114, “Synthesis and evaluation of new coumarin derivatives as potential atypical antipsychotics” (Eur J Med Chem, 2014)

How the values were obtained:
[1] = biological target: 5-hydroxytryptamine receptor 2A (Rattus norvegicus, UniProt P14842); experiment: Displacement of [3H]Ketanserin from 5HT2A receptor in Sprague-Dawley rat brain cortex homogenate after 30 mins by liquid scintillation counting; format: tissue-based
D(2) dopamine receptor = D(2) dopamine receptor (Rattus norvegicus, UniProt P61169); experiment: Displacement of [3H]spiperone from dopamine D2 receptor in Sprague-Dawley rat striatum homogenate after 30 mins by liquid scintillation counting
Sequence of D(2) dopamine receptor (P61169 whole entry): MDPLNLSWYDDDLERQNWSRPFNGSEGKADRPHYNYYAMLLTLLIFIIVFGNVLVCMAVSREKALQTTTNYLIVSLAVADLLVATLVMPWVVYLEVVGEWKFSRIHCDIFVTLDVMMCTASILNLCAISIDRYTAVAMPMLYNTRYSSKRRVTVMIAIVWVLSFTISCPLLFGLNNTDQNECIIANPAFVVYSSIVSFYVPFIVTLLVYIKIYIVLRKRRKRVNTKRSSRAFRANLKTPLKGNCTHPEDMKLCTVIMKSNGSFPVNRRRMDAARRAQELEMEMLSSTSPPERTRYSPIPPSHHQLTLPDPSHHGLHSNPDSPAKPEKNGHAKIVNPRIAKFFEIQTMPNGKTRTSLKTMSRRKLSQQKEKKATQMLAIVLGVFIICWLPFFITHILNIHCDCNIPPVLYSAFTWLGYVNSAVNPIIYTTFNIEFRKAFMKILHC

[2] = biological target: T1, 5-hydroxytryptamine receptor 1A (Rattus norvegicus, UniProt P19327); experiment: Displacement of [3H]8-OH-DPAT from 5HT1A receptor in Sprague-Dawley rat brain cortex homogenate after 30 mins by liquid scintillation counting; format: tissue-based
T1 sequence (P19327 whole entry): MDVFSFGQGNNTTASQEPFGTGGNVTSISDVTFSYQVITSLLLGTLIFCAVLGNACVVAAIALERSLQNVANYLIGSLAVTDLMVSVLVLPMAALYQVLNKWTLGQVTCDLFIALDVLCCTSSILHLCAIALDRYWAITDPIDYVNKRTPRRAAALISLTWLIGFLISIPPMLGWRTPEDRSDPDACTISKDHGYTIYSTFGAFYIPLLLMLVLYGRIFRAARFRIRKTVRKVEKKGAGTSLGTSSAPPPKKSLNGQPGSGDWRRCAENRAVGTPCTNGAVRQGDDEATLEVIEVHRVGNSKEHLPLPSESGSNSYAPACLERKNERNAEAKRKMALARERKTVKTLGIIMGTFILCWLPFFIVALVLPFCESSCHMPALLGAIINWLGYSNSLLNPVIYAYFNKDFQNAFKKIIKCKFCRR

Mus musculus [3] = experiment: Antipsychotic activity in po dosed Kunming mouse assessed as reversal of apomorphine-induced cage climbing response compound administered 30 mins prior to apomorphine challenge measured for 30 mins post challenge; format: functional
Mus musculus [4] = experiment: Toxicity in po dosed Kunming mouse assessed as induction of catalepsy; format: organism-based; conditions: in vivo
Mus musculus [5] = experiment: Antipsychotic activity in po dosed Kunming mouse assessed as reduction in MK801-induced hyperactivity compound administered 30 mins prior to MK801 challenge measured for 90 mins post challenge; format: functional
Histamine H1 receptor = Histamine H1 receptor (Cavia porcellus, UniProt P31389); experiment: Displacement of [3H]mepyramine from histamine H1 receptor in guinea pig cerebellum homogenate after 60 mins by liquid scintillation counting; format: tissue-based
Sequence of Histamine H1 receptor (P31389 whole entry): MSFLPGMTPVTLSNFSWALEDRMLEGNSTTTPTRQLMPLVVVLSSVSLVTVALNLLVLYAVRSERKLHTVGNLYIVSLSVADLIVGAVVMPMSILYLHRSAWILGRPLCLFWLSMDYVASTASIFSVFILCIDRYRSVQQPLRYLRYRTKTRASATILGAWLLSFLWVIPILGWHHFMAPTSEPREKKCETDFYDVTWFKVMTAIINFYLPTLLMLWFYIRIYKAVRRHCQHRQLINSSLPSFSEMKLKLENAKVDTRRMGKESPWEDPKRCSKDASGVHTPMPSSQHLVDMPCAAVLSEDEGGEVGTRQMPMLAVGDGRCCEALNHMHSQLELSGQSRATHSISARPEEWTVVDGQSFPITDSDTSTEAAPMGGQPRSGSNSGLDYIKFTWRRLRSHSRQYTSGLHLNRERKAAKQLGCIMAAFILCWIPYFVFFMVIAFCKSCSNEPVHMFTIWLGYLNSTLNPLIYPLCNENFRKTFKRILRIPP

in vivo [6] = conditions: Kunming, mouse, po
Description: Therapeutic index, ratio of ED50 for induction of catalepsy to ED50 for antipsychotic activity in po dosed Kunming mouse assessed as reversal of apomorphine-induced cage climbing response

D(3) dopamine receptor = D(3) dopamine receptor (Rattus norvegicus, UniProt P19020); experiment: Displacement of [3H]7-OH-DPA from dopamine D3 receptor in Sprague-Dawley rat olfactory tubercle homogenate after 60 mins by liquid scintillation counting; format: tissue-based
Sequence of D(3) dopamine receptor (P19020 whole entry): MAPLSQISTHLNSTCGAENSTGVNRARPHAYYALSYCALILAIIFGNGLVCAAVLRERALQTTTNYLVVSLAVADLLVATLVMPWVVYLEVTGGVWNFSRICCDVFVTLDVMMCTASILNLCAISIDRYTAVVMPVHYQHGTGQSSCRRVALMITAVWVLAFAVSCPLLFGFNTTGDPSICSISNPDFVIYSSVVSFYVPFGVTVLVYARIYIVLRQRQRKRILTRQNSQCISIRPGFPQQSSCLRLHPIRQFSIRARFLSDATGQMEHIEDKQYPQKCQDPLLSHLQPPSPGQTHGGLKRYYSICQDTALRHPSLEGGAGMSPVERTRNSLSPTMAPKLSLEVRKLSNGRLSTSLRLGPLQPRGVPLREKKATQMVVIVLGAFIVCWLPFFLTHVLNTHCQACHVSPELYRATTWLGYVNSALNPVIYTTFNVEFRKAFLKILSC

in vivo [7] = conditions: Kunming, mouse, po; remark: listed apart in the source
Description: Therapeutic index, ratio of ED50 for induction of catalepsy to ED50 for antipsychotic activity in po dosed Kunming mouse assessed as reduction in MK801-induced hyperactivity

[8] = Acute toxicity in po dosed Kunming mouse assessed as survival measured after 24 hrs; format: organism-based; conditions: in vivo

Sequence of 5-hydroxytryptamine receptor 2A (P14842 whole entry): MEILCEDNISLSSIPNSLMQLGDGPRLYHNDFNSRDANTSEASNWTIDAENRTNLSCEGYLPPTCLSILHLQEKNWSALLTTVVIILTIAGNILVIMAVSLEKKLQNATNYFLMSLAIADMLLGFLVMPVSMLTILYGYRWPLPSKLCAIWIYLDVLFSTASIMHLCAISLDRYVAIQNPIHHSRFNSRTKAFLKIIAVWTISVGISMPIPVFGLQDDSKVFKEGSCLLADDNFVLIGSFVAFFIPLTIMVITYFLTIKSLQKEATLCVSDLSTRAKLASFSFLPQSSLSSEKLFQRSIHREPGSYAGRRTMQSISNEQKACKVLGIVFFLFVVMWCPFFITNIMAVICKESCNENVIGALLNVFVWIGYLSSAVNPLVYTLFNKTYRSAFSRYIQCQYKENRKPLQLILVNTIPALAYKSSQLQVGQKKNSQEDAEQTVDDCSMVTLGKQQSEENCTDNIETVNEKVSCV

SMILES | Ki [1] | Ki (D(2) dopamine receptor) | Ki [2] | also measured
O=c1oc2cc(OCCCN3CCC(c4noc5cc(F)ccc45)CC3)ccc2c2ccccc12 | > 10000 nM | > 10000 nM | > 10000 nM | 
O=c1oc2cc(OCCCCN3CCC(c4noc5cc(F)ccc45)CC3)c(Cl)cc2c2c1CCC2 | 249 nM | 146 nM | 140 nM | 
COc1ccccc1N1CCN(CCCCOc2ccc3c4c(c(=O)oc3c2Cl)CCC4)CC1 | 105 nM | 159 nM | 157 nM | 
Cc1nc2n(c(=O)c1CCN1CCC(c3noc4cc(F)ccc34)CC1)CCCC2 [RISPERIDONE] |  |  |  | ED50 (Mus musculus [3]): 0.02 mg/kg; ED50 (Mus musculus [4]): 0.43 mg/kg; ED50 (Mus musculus [5]): 0.017 mg/kg
Cc1c(OCCCCN2CCC(c3noc4cc(F)ccc34)CC2)ccc2c3c(c(=O)oc12)CCC3 | 2.2 nM | 12.7 nM | 7.8 nM | Activity (Mus musculus [3]): Dose-dependent effect; ED50 (Mus musculus [3]): 0.61 mg/kg; Ki (Histamine H1 receptor): 1830 nM; ED50 (Mus musculus [4]): 66.47 mg/kg; selectivity ratio (in vivo [6]): 109; Ki (D(3) dopamine receptor): 13.6 nM; selectivity ratio (in vivo [7]): 214; Activity (Mus musculus [5]): Dose-dependent effect; ED50 (Mus musculus [5]): 0.31 mg/kg; LD50 at 24 h [8]: > 2000 mg/kg
O=c1oc2cc(OCCCCN3CCC(c4noc5cc(F)ccc45)CC3)ccc2c2c1CCC2 | 13.1 nM | 24.4 nM | 47.5 nM | Ki (Histamine H1 receptor): 21.3 nM; Ki (D(3) dopamine receptor): 110 nM
O=c1oc2c(Cl)c(OCCCCN3CCC(c4noc5cc(F)ccc45)CC3)ccc2c2c1CCC2 | 5.3 nM | 18.9 nM | 11.4 nM | Ki (Histamine H1 receptor): 13.6 nM; Ki (D(3) dopamine receptor): 13.9 nM
O=C(CCCN1CCC(O)(c2ccc(Cl)cc2)CC1)c1ccc(F)cc1 [HALOPERIDOL] |  |  |  | ED50 (Mus musculus [3]): 0.14 mg/kg; ED50 (Mus musculus [4]): 0.38 mg/kg; selectivity ratio (in vivo [6]): 2.71; selectivity ratio (in vivo [7]): 2.38; ED50 (Mus musculus [5]): 0.16 mg/kg
O=c1oc2cc(OCCCN3CCC(c4noc5cc(F)ccc45)CC3)ccc2c2c1CCC2 | 188 nM | > 10000 nM | > 10000 nM | 
CN1CCN(C2=Nc3cc(Cl)ccc3Nc3ccccc32)CC1 [CLOZAPINE] |  |  |  | ED50 (Mus musculus [3]): 3.97 mg/kg; ED50 (Mus musculus [4]): 46.14 mg/kg; ED50 (Mus musculus [5]): 2.25 mg/kg
O=c1oc2cc(OCCCCCN3CCC(c4noc5cc(F)ccc45)CC3)ccc2c2c1CCC2 | 426 nM | 698 nM | 1050 nM | 
O=c1oc2cc(OCCCCN3CCC(c4noc5cc(F)ccc45)CC3)ccc2c2ccccc12 | > 10000 nM | > 10000 nM | > 10000 nM | 
O=c1oc2cc(OCCCCN3CCC(c4nc5ccccc5o4)CC3)ccc2c2c1CCC2 | 16.2 nM | 1890 nM | 26.8 nM | 
COc1ccccc1N1CCN(CCCCOc2cc3oc(=O)c4c(c3cc2Cl)CCC4)CC1 | 36.6 nM | > 10000 nM | 84.8 nM | 
O=c1oc2cc(OCCCCN3CCC(c4nc5ccccc5s4)CC3)ccc2c2c1CCC2 | 1870 nM | > 10000 nM | 1600 nM | 
O=c1oc2cc(OCCCCN3CCC(c4noc5cc(F)ccc45)CC3)ccc2c2c1CCCC2 | 126 nM | 624 nM | > 10000 nM | 
COc1ccccc1N1CCN(CCCCOc2ccc3c4c(c(=O)oc3c2C)CCC4)CC1 | 175 nM | 570 nM | 349 nM | 

Now from value to compound, other results behind:

Ki [1] | Ki (D(2) dopamine receptor) | Ki [2] | SMILES | also measured
1400 nM | > 10000 nM | 1260 nM | O=c1oc2cc(OCCCCN3CCN(c4ccccn4)CC3)ccc2c2c1CCC2 | 
59.2 nM | > 10000 nM | 56 nM | O=c1oc2cc(OCCCCN3CCN(c4ccccc4)CC3)ccc2c2c1CCC2 | 
16.5 nM | > 10000 nM | 28.9 nM | O=c1oc2cc(OCCCCN3CCN(c4ccc(F)cc4)CC3)ccc2c2c1CCC2 | 
174 nM | > 10000 nM | 19.3 nM | O=c1oc2cc(OCCCCN3CCN(c4cccc(C(F)(F)F)c4)CC3)ccc2c2c1CCC2 | 
3.9 nM | 5.6 nM | 0.2 nM | COc1ccccc1N1CCN(CCCCOc2ccc3c4c(c(=O)oc3c2)CCC4)CC1 | Ki (Histamine H1 receptor): 699 nM; Ki (D(3) dopamine receptor): 178 nM
11.7 nM | 1600 nM | 22.1 nM | Cc1cccc(N2CCN(CCCCOc3ccc4c5c(c(=O)oc4c3)CCC5)CC2)c1C | 
618 nM | > 10000 nM | 640 nM | COc1ccccc1N1CCN(CCCOc2ccc3c4c(c(=O)oc3c2)CCC4)CC1 | 
653 nM |  | 969 nM | O=c1oc2cc(OCCCCN3CCN(c4nsc5ccccc45)CC3)ccc2c2c1CCC2 | 
1030 nM | 757 nM | 1120 nM | COc1ccccc1N1CCN(CCCCOc2ccc3c4c(c(=O)oc3c2)CCCC4)CC1 | 
79.3 nM | 1900 nM | 68 nM | O=c1oc2cc(OCCCCN3CCN(c4cccc(Cl)c4Cl)CC3)ccc2c2c1CCC2 | 
895 nM | 1060 nM | 22.4 nM | COc1cccc(N2CCN(CCCCOc3ccc4c5c(c(=O)oc4c3)CCC5)CC2)c1 | 
> 10000 nM | > 10000 nM | 1240 nM | COc1ccc(N2CCN(CCCCOc3ccc4c5c(c(=O)oc4c3)CCC5)CC2)cc1 | 
